# Data published in patent US10221190B2, “Biguanide compounds and use thereof” (IMMUNOMET THERAPEUTICS INC., priority 2013, dated 2019).
# Key:
# [1] = system: lung cancer cell line A549; assay: Inhibitory activity on Oxygen Consumption Rate (OCR); assay type: cell-based; conditions: A549, 3 hrs, 10 uM compound; phenformin set to 100%, untreated control set to 0%
# Procedure: The cellular metabolic activity of the compounds on Oxygen Consumption Rate (OCR) was evaluated, because the biguanide drugs have anticancer activity by inhibiting the oxidative phosphorylation of cancer cell.
# A549 cells were inoculated at 5×10^3 cells in RPMI1640 media on XF96 cell culture plate and cultured for 24 h (temp; 37° C., 5% CO2) to make the cell adhere to the plate.
# After 24 hr, A549 cells were treated by 10 μM of the compounds or phenformin, and were washed with XF analysis media using Prep station to remove the original media. A549 cells were retreated by compounds or phenformin and incubated for 1 hr (temp; 37° C., Non-CO2) in Prep station. While incubation in Prep station, sensor cartridge was calibrated for 1 hr. Then, the calibrated sensor cartridge was inserted to the cell plate to analyze OCR.
# When OCR of phenformin as a reference drug was set to 100% and OCR of untreated control was set to 0%, the OCR of tested compounds was calculated by converting the measured OCR to be the relative percentage value (%).
# HCT116 cell = assay: Inhibitory activity against cancer cells (MTT cell viability), HCT116; assay type: cell-based, human; conditions: Homo sapiens, HCT 116, 48 hr incubation
# Procedure: (§1) The inhibitory activities of biguanide derivatives against cancer cells were evaluated in the cell line SK-MEL-28 derived from human Melanoma cell, Miapaka-2 cell line derived from human pancreatic cancer cell and HCT116 cell line derived from human colorectal cancer cell by measuring the concentration that inhibits 50% of the growth of the cell lines (the half maximal inhibitory concentration, IC50).
# (§2) Firstly, SK-MEL-28 cells were grown to be density of 5,000 cells/well in RPMI-1640 media supplemented with 10% (v/v) bovine calf serum, on 96-well plates for 16 hr. To measure the IC50 of each compound, the cells were incubated for 48 hr with the 100 mM PBS stock compounds at an amount of 10 mM, 1 mM, 200 uM, 40 uM, 8 uM, 1.6 uM, 0.32 uM or 0.064 uM; 50 mM PBS and EtOH stock compounds at an amount of 1 mM, 200 uM, 40 uM, 8 uM, 1.6 uM, 0.32 uM and 0.064 uM; and 50 mM DMSO stock compounds at an amount of 100 uM, 25 uM, 6.25 uM, 1.56 uM, 0.39 uM, 0.10 uM and 0.02 uM, respectively. To test the viable cells after incubation with each compound, the cell cultures were incubated additionally for 2 hr in the presence of MTT. The produced formazan crystals were dissolved with dimethyl sulfoxide and then measured by detecting the absorbance at 560 nm.
# (§3) After the 48 hr incubation, the viable cells were counted on the well plates treated with the compounds of the Examples relative to the count of the viable cells on the non-treated plates, and then was represented as the cell viability (%). By using the cell viability (%) result, the cell viability curve was plotted, and IC50 was calculated from the curve to evaluate the inhibitory activity against cancer cells.
# (§4) The inhibitory activities of biguanide derivatives against cancer cells of Miapaca-2 cell and HCT116 cell were evaluated according to the substantially same method as described in SK-MEL-28 cell, except that DMEM media supplemented with 10% (v/v) bovine calf serum was used instead of RPMI-1640 media supplemented with 10% (v/v) bovine calf serum for SK-MEL-28 cell.
# SK-MEL-28 cells = assay: Inhibitory activity against cancer cells (MTT cell viability), SK-MEL-28; assay type: cell-based; conditions: Homo sapiens, SK-MEL-28, 48 hr incubation
# Procedure: as §1, §2, §3
# Miapaca-2 cell = assay: Inhibitory activity against cancer cells (MTT cell viability), Miapaca-2; assay type: cell-based; conditions: Homo sapiens, MIA PaCa-2, Miapaca-2, 48 hr incubation
# Procedure: as §1, §2, §3, §4
SMILES,OCR inhibition relative to phenformin (%) [1],IC50 (HCT116 cell),IC50 (SK-MEL-28 cells),IC50 (Miapaca-2 cell)
"Cl.N=C(NC(=N)N1CCc2ccccc2C1)N1CCCC1 [Example 89, N-(imino(pyrrolidin-1-yl)methyl)-3,4-dihydroisoquinoline-2(1H)-carboximidamide]",44%,59.5 µM,–,–
"Cl.N=C(NC(=N)N1CCC(CO)C1)Nc1ccc(OC(F)(F)F)cc1 (stereo not drawn) [Example 20, N1-3-hydroxy methyl pyrrolidine-N5-(4-trifluoromethoxy)phenyl biguanide]",15%,> 100 µM,134 µM,58.6 µM
"CC(C)c1ccc(NC(=N)NC(=N)N2CCCC2)cc1.Cl [Example 6, N1-pyrrolidine-N5-(4-isopropyl)phenyl biguanide]",44%,28.6 µM,–,–
"[H]/N=C(/N)N/C(=N/[H])NCCc1ccccc1 [Phenformin, phenformin, reference compound]",–,12.5 µM,266 µM,119 µM
"Cl.N=C(NC(=N)N1CCC(O)CC1)Nc1cccc(Oc2ccccc2)c1 [Example 22, N1-4-hydroxy piperidine-N5-(3-phenoxy)phenyl biguanide]",74%,–,–,106 µM
"Cl.N=C(NC(=N)N1CCC(O)CC1)Nc1ccc(OC(F)(F)F)cc1 [Example 18, N1-4-hydroxy piperidine-N5-(4-trifluoromethoxy)phenyl biguanide]",57%,> 100 µM,182 µM,47.9 µM
"N=C(NC(=N)N1CCCC1)Nc1ccc2c(c1)CCCC2 [Example 14, N1-pyrrolidine-N5-(5,6,7,8-tetrahydronaphthalene-2-yl) biguanide]",–,> 100 µM,29.5 µM,26.6 µM
"CN1CCN(C(=N)NC(=N)Nc2ccc(F)c(OC(F)(F)F)c2)CC1.Cl [Example 40, N1-4-methyl piperazine-N5-(4-fluoro-3-trifluoromethoxy)phenyl biguanide]",42.9%,35.2 µM,–,–
"N=C(NC(=N)N1CC[C@H](O)C1)Nc1ccc(OC(F)(F)F)cc1 [Example 17, N1-(S)-3-hydroxy pyrrolidine-N5-(4-trifluoromethoxy)phenyl biguanide]",–,> 100 µM,184 µM,113 µM
C[C@H]1CCCN1C(=N)NC(=N)Nc1ccc(OC(F)(F)F)cc1.Cl [Example 16],13%,39.8 µM,–,–
